From US7342089B2, “Cyclic peptides for treatment for cachexia” (Palatin Technologies, Inc., priority 2002, dated 2008) come the findings set out here.

For assay [1], the target named is T1, MC1-R (B-16 mouse melanoma cells) (Mus musculus, UniProt Q01727). The assay can be described thus: cAMP assay for agonist/antagonist status, MC1-R. It counts as cell-based. The following applies: for pEC50: read-out: EC50 as to MC1-R. As for the experimental part: Cells are incubated with the test peptides in the presence or absence of α-MSH for 1 hour at 37° C. cAMP levels in the cell lysates are measured using the EIA kit (Amersham). Data analysis and EC50 values are determined using nonlinear regression analysis with Prism Graph-Pad software.
The agonist/antagonist status with respect to MC1-R, MC4-R and MC5-R of certain peptides of the invention is determined. Antagonistic activity is determined by measuring the inhibition of α-MSH-induced or NDP-α-MSH-induced cAMP levels following exposure to the peptides as in the preceding descriptions.
In general terms: Cyclic AMP is a second messenger, typically raised through Gs and lowered through Gi signalling.

Another assay addresses T2, hMC4-R (HEK-293 cells) (Homo sapiens, UniProt P32245).
T2 construct: expressed in transfected cells; host or cells: HEK-293
As to the kind of experiment: cAMP assay for agonist/antagonist status and functional antagonism, MC4-R. It counts as cell-based. The following applies: for agonist/antagonist status as to MC4-R: cAMP assay; for Kb: functional antagonism, Schild's analysis vs NDP-α-MSH, read-out: pA2 value as to MC4-R (converted).

For the next assay, the target named is T3, hMC3-R (Homo sapiens, UniProt P41968).
T3 construct: expressed in transfected cells; host or cells: HEK-293
The assay can be described thus: Competitive inhibition binding assay using [I125]-NDP-α-MSH, hMC3-R. The settings on record: HEK-293 membranes, read-out: Ki MC3-R.

A further assay has as its target T4, hMC4-R (Homo sapiens, UniProt P32245).
T4 construct: expressed in transfected cells; host or cells: HEK-293
The assay can be described thus: Competitive inhibition binding assay using [I125]-NDP-α-MSH, hMC4-R. The settings on record: HEK-293 membranes, read-out: Ki MC4-R.

The next assay concerns rats. The assay can be described thus: ICV feeding studies. Type of assay: in vivo, rat. The following applies: lowest value of multiple tests, parentheses = decrease. As to the method: Change in food intake and body weight is evaluated for selected peptides. Rats with indwelling intracerebroventricular cannulas (ICV rats) are obtained from Hilltop Lab Animals, Inc. (Scottdale, Pa.). Animals are individually housed in conventional plexiglass hanging cages and maintained on a controlled 12 hour on/off light cycle. Water and powdered (LabDiet, 5P00 Prolab RMH 3000) or pelleted (Harlan Teklad 2018 18% Protein Rodent Diet) food is provided ad libitum. For 1 week before treatment, 24-hour food intake and body weight change is recorded to assess a baseline for the group during vehicle treatment. The rats are dosed ICV with vehicle or selected cyclic peptides (0.3-3 nmol). The changes in body weight and food intake for the 24 hour period after dosing are determined. The changes in body weight and food intake for the 48 hour and 72 hour periods after dosing are also measured to determine reversal of changes in body weight and food intake effects back to baseline levels.
A series of ICV feeding studies were conducted on rats. All animals were dosed on the first day with saline ICV, and given a pre-weighed food bowl with food weight recorded at 2 and 21 hours post-ICV injection. On day 2, animals were randomized based on the 21 hour food consumption, with animals eliminated due to low food consumption or food spills. […] Food weights were again recorded at 2, 4, 21 and 24 hours post-icv injection. In most instances, multiple different tests were conducted which each group containing between 8 and 12 members; the lowest value is shown below. Values are shown as percent increase (decrease) in aggregate food intake. “ND” means no test was conducted at that dose level.

The target of another assay is T5, hMC3-R (HEK-293 cells) (Homo sapiens, UniProt P41968).
T5 construct: expressed in transfected cells; host or cells: HEK-293
The assay can be described thus: cAMP assay for agonist/antagonist status and functional antagonism, MC3-R. It counts as cell-based.

The target in assay [2] is T1, MC1-R (B-16 mouse melanoma cells). As to the kind of experiment: Competitive inhibition binding assay using [I125]-NDP-α-MSH, MC1-R. The settings on record: B-16 mouse melanoma cell membranes. As for the experimental part:
Each assay is conducted in triplicate.

In a further assay the target is T6, hMC5-R (Homo sapiens, UniProt P33032).
T6 construct: expressed in transfected cells; host or cells: HEK-293
The assay can be described thus: Competitive inhibition binding assay using [I125]-NDP-α-MSH, hMC5-R. The settings on record: HEK-293 membranes, read-out: Ki MC5-R.

pEC50, pKi: −log10 of the molar value. Positions of bridges follow the written chain, without caps; N, C: chain ends. Non-standard residues stand in square brackets, D forms with d. Residues, ends and D or L forms follow the SMILES beside them. 2Nal = N[C@@H](Cc1ccc2ccccc2c1)C(=O)O; d2Nal = N[C@H](Cc1ccc2ccccc2c1)C(=O)O

T1 sequence (Q01727 whole entry): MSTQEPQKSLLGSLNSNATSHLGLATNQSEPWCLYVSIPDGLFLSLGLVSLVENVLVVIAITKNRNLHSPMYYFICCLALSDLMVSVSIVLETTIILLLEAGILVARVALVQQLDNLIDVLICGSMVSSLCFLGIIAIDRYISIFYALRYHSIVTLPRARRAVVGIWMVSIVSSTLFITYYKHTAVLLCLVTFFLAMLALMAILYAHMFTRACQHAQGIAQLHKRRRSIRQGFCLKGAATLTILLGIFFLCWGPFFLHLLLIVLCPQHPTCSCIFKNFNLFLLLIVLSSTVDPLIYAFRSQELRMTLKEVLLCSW
T6 sequence (P33032 whole entry): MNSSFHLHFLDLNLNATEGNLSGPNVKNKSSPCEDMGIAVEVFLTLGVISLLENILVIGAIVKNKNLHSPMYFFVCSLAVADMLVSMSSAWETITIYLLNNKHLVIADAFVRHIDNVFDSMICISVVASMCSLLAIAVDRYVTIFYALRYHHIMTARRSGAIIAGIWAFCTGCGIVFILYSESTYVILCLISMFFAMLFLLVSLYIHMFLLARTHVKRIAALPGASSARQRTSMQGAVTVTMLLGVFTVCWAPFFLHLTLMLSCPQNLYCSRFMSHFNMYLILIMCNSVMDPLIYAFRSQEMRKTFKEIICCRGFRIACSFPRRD
T3 sequence (P41968 whole entry): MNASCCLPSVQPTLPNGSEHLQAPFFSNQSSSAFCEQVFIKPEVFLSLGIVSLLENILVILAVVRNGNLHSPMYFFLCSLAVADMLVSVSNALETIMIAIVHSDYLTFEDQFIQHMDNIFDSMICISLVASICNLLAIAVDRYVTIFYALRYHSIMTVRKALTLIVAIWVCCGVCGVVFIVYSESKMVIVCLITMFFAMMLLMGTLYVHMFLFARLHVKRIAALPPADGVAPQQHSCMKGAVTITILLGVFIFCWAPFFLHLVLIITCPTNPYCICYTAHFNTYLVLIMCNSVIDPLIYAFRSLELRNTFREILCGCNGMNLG
T5 sequence (P41968 whole entry): as above
T2 sequence (P32245 whole entry): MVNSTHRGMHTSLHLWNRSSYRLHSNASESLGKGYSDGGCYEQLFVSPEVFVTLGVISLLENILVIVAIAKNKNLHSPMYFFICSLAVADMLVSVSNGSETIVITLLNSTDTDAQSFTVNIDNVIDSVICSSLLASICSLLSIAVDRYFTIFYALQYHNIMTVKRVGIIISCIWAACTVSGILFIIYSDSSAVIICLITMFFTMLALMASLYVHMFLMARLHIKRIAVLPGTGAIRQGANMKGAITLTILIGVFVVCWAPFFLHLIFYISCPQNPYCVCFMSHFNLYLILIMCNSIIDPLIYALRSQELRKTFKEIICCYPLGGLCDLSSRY
T4 sequence (P32245 whole entry): as above
Method for hMC3-R (HEK-293 cells): Assay for neutral antagonist.
Experimental details are similar to the analysis for agonistic activity and are described above. Briefly, cells are pre-incubated for 30 minutes with the test peptides at concentrations between 0.5 nM and 5000 nM. […] For Schild's analysis, the interactions are studied using at least 3 concentrations of the peptides, separated by a log unit, over a full range of the agonist (0.005-5000 nM). cAMP levels is measured in the cell lysates after appropriate dilution. Nonlinear regression analysis with the Prism Graph-Pad software is used for Schild's analysis and to obtain EC50 values. pA2 values are derived from the Schild's plot.
Method for hMC4-R (HEK-293 cells): Confluent HEK-293 cells over-expressing MC4-R are detached by enzyme free cell suspension buffer. […] The cells are plated in a 96 well plates at a density of 0.5×10^5 cells per well and pre-incubated for 30 minutes. The cells are then challenged with the test peptides dissolved in dimethylsulfoxide (DMSO) at a concentration range of 0.05-5000 nM in a total assay volume of 200 μL for 1 hour at 37° C. The concentration of DMSO is always held at 1% in the assay mixture. […] At the end of the incubation period the cells are disrupted by the addition of 50 μL lysis buffer from the cAMP EIA kit (Amersham). Complete rupture of the cells is ensured by pipetting the cells up and down multiple times. cAMP levels in the cell lysates are measured after appropriate dilution using the EIA kit (Amersham) method. Data analysis and EC50 values are determined by using nonlinear regression analysis with the Prism Graph-Pad software. […] Peptides with a response ratio of less than 0.1 are evaluated for antagonistic activity.
Briefly, cells are pre-incubated for 30 minutes with the test peptides at concentrations between 0.5 nM and 5000 nM. […] For Schild's analysis, the interactions are studied using at least 3 concentrations of the peptides, separated by a log unit, over a full range of the agonist (0.005-5000 nM). cAMP levels is measured in the cell lysates after appropriate dilution. Nonlinear regression analysis with the Prism Graph-Pad software is used for Schild's analysis and to obtain EC50 values. pA2 values are derived from the Schild's plot.

On to `CC(=O)N[C@H]1CC(=O)NCCCC[C@@H](C(=O)N(C)C)NC(=O)[C@H](Cc2ccc3ccccc3c2)NC(=O)[C@H](CCCNC(=N)N)NC(=O)[C@@H](Cc2ccc3ccccc3c2)NC(=O)[C@H](Cc2c[nH]c3ccccc23)NC1=O` [Example 18, Ac-cyclo(-Asp-Trp-D-Nal 2-Arg-Nal 2-Lys)-N(CH3)2] (Ac-DW[d2Nal]R[2Nal]K-NMe2; lactam 1-6), for which, in assay [1], the “agonist/antagonist status as to MC1-R” value was “inactive”. At hMC4-R (HEK-293 cells), the “agonist/antagonist status as to MC4-R” value is reported as “antagonist”. For the same molecule, the results for the Kb on hMC4-R (HEK-293 cells) and on hMC3-R (HEK-293 cells) (read-out: pA2 value as to MC3-R (converted)) were 2.04 nM and 51.3 nM, respectively. For the same molecule, the pKi (usually the negative decadic logarithm of the Ki, by convention in mol/L) on hMC3-R is 9.00; at hMC4-R, 10.52; in assay [2], 6.97; on hMC5-R, 8.40. For the same molecule, the “Percent Increase (Decrease) In Aggregate Food Intake After ICV Administration of Peptide Compared to Vehicle (Saline)” value with rats (0.3 nmol) and in the assay on rats (1 nmol) was 24% each time. Also, on hMC3-R (HEK-293 cells) (cAMP assay), the “agonist/antagonist status as to MC3-R” value is “antagonist”.

In the case of `CC(=O)N[C@H]1CC(=O)NCCCC[C@@H](C(=O)O)NC(=O)[C@H](Cc2c[nH]c3ccccc23)NC(=O)[C@H](CCCNC(=N)N)NC(=O)[C@@H](Cc2ccc3ccccc3c2)NC(=O)[C@H](Cc2c[nH]cn2)NC1=O` [Example 14, Ac-cyclo(-Asp-His-D-Nal 2-Arg-Trp-Lys)-OH], in assay [1], the “agonist/antagonist status as to MC1-R” value was “agonist”. Besides, the negative logarithm of the EC50 (pEC50) (usually the negative decadic logarithm of the EC50, by convention in mol/L) is 5.35 in assay [1] and 9.00 on hMC3-R (HEK-293 cells) (cAMP assay, read-out: EC50 as to MC3-R). Also, the “agonist/antagonist status as to MC4-R” value at hMC4-R (HEK-293 cells) is “antagonist”. For the same molecule, the Kb at hMC4-R (HEK-293 cells) was 186 nM. For the same molecule, the pKi on hMC3-R was 7.26; on hMC4-R, 8.70; in assay [2], 6.74; on hMC5-R it was 6.72. For the same molecule, the “Percent Increase (Decrease) In Aggregate Food Intake After ICV Administration of Peptide Compared to Vehicle (Saline)” value in the assay on rats (1 nmol) is on record as 16%. The “agonist/antagonist status as to MC3-R” value at hMC3-R (HEK-293 cells) (cAMP assay) is given as “antagonist”.

As to `CC(=O)N[C@H]1CC(=O)NCCCC[C@@H](C(=O)O)NC(=O)[C@H](Cc2ccc3ccccc3c2)NC(=O)[C@H](CCCNC(=N)N)NC(=O)[C@@H](Cc2ccc3ccccc3c2)NC(=O)[C@H](Cc2c[nH]c3ccccc23)NC1=O` [Example 16, Ac-cyclo(-Asp-Trp-D-Nal 2-Arg-Nal 2-Lys)-OH] (Ac-DW[d2Nal]R[2Nal]K-OH; lactam 1-6), the “agonist/antagonist status as to MC1-R” value in assay [1] is listed as “partial agonist”. Moreover, the negative-log EC50 (pEC50) in assay [1] is below 6.00. Moreover, the “agonist/antagonist status as to MC4-R” value on hMC4-R (HEK-293 cells) is listed as “antagonist”. The Kb on hMC4-R (HEK-293 cells) is 3.55 nM. The pKi was 8.00 at hMC3-R, 10.00 on hMC4-R, 5.96 in assay [2] and 7.77 on hMC5-R. The “Percent Increase (Decrease) In Aggregate Food Intake After ICV Administration of Peptide Compared to Vehicle (Saline)” value in the assay on rats (0.3 nmol) was 0%; with rats (1 nmol), 4%. For the same molecule, on hMC3-R (HEK-293 cells) (cAMP assay), the “agonist/antagonist status as to MC3-R” value is on record as “antagonist”.
